Measured values as given in patent publication US20260297070A1, “CYCLIC [COMPOUND LEFT OUT] WRN INHIBITORS” (Nimbus Wadjet, Inc., priority 2023, published 2026).

These compounds were tested against T1, human Werner helicase (WRN-BV08, Uniprot Q14191, amino acids 517-1235 with L1074F point mutation) (Homo sapiens, UniProt Q14191, L1074F) (assay: WRN (BV08) ADP-Glo Assay). Settings: 0.15 nM WRN, 5 μM ATP, 0.1 nM DNA duplex, 15 min preincubation, 60 min at 25° C., pH 7.5, 1% DMSO; read-out: ADP-Glo_hWRN_IC50.
T1 construct: Uniprot Q14191, amino acids 517-1235 with L1074F point mutation; TEV-cleavable 8×His (C, cleaved yes); made in house; host or cells: Sf9 insect cells (baculovirus)
T1 sequence (Q14191 with tags, fused parts or gaps L1074F limits assumed): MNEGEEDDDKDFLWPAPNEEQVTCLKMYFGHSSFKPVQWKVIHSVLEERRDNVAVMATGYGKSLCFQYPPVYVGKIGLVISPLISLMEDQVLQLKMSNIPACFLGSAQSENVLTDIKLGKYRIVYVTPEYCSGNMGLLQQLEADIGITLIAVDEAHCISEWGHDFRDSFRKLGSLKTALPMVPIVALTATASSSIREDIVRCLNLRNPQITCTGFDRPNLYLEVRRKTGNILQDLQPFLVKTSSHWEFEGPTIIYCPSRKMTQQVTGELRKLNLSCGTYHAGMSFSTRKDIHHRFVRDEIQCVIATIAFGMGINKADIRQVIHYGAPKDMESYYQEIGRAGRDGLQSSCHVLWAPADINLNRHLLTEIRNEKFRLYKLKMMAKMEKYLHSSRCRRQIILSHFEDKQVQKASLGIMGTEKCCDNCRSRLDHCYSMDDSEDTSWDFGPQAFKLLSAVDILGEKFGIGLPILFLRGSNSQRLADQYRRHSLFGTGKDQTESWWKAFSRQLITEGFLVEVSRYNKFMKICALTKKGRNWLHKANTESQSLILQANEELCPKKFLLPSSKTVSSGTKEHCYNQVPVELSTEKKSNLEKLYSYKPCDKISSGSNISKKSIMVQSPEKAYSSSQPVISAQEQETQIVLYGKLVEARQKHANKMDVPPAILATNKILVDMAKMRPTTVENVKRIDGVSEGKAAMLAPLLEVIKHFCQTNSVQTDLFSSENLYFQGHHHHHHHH
Format: biochemical
In short: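 Percent inhibition was normalised to DMSO (max) and 20 μM NSC-617145 (min) controls from ADP-Glo luminescence, and IC50 values came from a four-parameter fit. The reaction ran 60 min at 25 °C with 0.15 nM WRN, 5 μM ATP and 0.1 nM duplex DNA.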

Compound | IC50
O=C(C1CC(C(F)(F)F)CO1)N(Cc1ccncc1)C1C=CS(=O)(=O)C1 (stereo not shown) [I-651, N-(1,1-dioxo-2,3-dihydro-1lambda6-thiophen-3-yl)-N-[(pyridin-4-yl)methyl]-4-(trifluoromethyl)oxolane-2-carboxamide] | > 50 µM
COc1cc(CN(C(=O)C(C(=O)N(C)C)c2ccc(-c3ccc(F)cc3)cc2)C2C=CS(=O)(=O)C2)ccn1 (stereo not shown) [I-55, N-(1,1-dioxo-2,3-dihydro-1lambda6-thiophen-3-yl)-2-{4′-fluoro-[1,1′-biphenyl]-4-yl}-N-[(2-methoxypyridin-4-yl)methyl]-N′,N′-dimethylpropanediamide] | < 0.5 µM
CNC(=O)c1ccc(CN(C(=O)Cc2ccc(-n3cccc3)cc2)C2C=CS(=O)(=O)C2)cc1 (stereo not shown) [I-255, 4-{[N-(1,1-dioxo-2,3-dihydro-1lambda6-thiophen-3-yl)-2-[4-(1H-pyrrol-1-yl)phenyl]acetamido]methyl}-N-methylbenzamide] | 5 to 10 µM
O=C(Cc1cnn(-c2ccccc2)c1)N(Cc1ccncc1)C1C=CS(=O)(=O)C1 (stereo not shown) [I-409, N-(1,1-dioxo-2,3-dihydro-1lambda6-thiophen-3-yl)-2-(1-phenyl-1H-pyrazol-4-yl)-N-[(pyridin-4-yl)methyl]acetamide] | > 50 µM
CC(F)(F)c1csc(CN(C(=O)Cc2ccc(S(F)(F)(F)(F)F)cc2)C2C=CS(=O)(=O)C2)n1 (stereo not shown) [I-625, N-{[4-(1,1-difluoroethyl)-1,3-thiazol-2-yl]methyl}-N-(1,1-dioxo-2,3-dihydro-1lambda6-thiophen-3-yl)-2-[4-(pentafluoro-lambda6-sulfanyl)phenyl]acetamide] | < 0.5 µM
O=C(Cn1ncc(-c2ccccc2)n1)N(Cc1ccncc1)C1C=CS(=O)(=O)C1 (stereo not shown) [I-291, N-(1,1-dioxo-2,3-dihydro-1lambda6-thiophen-3-yl)-2-(4-phenyl-2H-1,2,3-triazol-2-yl)-N-[(pyridin-4-yl)methyl]acetamide] | 10 to 50 µM
O=C(Cc1ccc2c(c1)CCOC2)N(Cc1ccncc1)C1C=CS(=O)(=O)C1 (stereo not shown) [I-630, 2-(3,4-dihydro-1H-2-benzopyran-6-yl)-N-(1,1-dioxo-2,3-dihydro-1lambda6-thiophen-3-yl)-N-[(pyridin-4-yl)methyl]acetamide] | > 50 µM
COc1cc(CN(C(=O)Cc2ccc(-n3cccc3C)cc2)C2C=CS(=O)(=O)C2)ccn1 (stereo not shown) [I-119, N-(1,1-dioxo-2,3-dihydro-1lambda6-thiophen-3-yl)-N-[(2-methoxypyridin-4-yl)methyl]-2-[4-(2-methyl-1H-pyrrol-1-yl)phenyl]acetamide] | 0.5 to 5 µM
O=C(Cc1ccc(-n2cccc2)cc1)N(Cc1ccccc1N1CCC(O)C1)C1C=CS(=O)(=O)C1 (stereo not shown) [I-372, N-(1,1-dioxo-2,3-dihydro-1lambda6-thiophen-3-yl)-N-{[2-(3-hydroxypyrrolidin-1-yl)phenyl]methyl}-2-[4-(1H-pyrrol-1-yl)phenyl]acetamide] | > 50 µM
O=C(Cc1ccc(-c2ccsc2)cc1)N(Cc1ccncc1)C1C=CS(=O)(=O)C1 (stereo not shown) [I-248, N-(1,1-dioxo-2,3-dihydro-1lambda6-thiophen-3-yl)-N-[(pyridin-4-yl)methyl]-2-[4-(thiophen-3-yl)phenyl]acetamide] | 5 to 10 µM
CCN(CC)C(=O)C(C(=O)N(Cc1ccnc(C(C)(C)O)c1)C1C=CS(=O)(=O)C1)c1ccc(-c2ccc(F)c(F)c2)cc1F (stereo not shown) [I-62, N′-(1,1-dioxo-2,3-dihydro-1lambda6-thiophen-3-yl)-N,N-diethyl-N′-{[2-(2-hydroxypropan-2-yl)pyridin-4-yl]methyl}-2-{3,3′,4′-trifluoro-[1,1′-biphenyl]-4-yl}propanediamide] | < 0.5 µM
CC1=CC(N(Cc2ccccc2)C(=O)Cc2ccc(-n3cccc3)cc2)CS1(=O)=O (stereo not shown) [I-566, 2-(4-(1H-pyrrol-1-yl)phenyl)-N-benzyl-N-(5-methyl-1,1-dioxido-2,3-dihydrothiophen-3-yl)acetamide] | > 50 µM
O=C(Cc1ccc(-n2cccc2)cc1)N(Cc1ccc(B(O)O)cc1)C1C=CS(=O)(=O)C1 (stereo not shown) [I-321, (4-((2-(4-(1H-pyrrol-1-yl)phenyl)-N-(1,1-dioxido-2,3-dihydrothiophen-3-yl)acetamido)methyl)phenyl)boronic acid] | 10 to 50 µM
O=C(CC12CC(c3ccccc3)(C1)C2)N(Cc1ccncc1)C1C=CS(=O)(=O)C1 (stereo not shown) [I-439, N-(1,1-dioxo-2,3-dihydro-1lambda6-thiophen-3-yl)-2-{3-phenylbicyclo[1.1.1]pentan-1-yl}-N-[(pyridin-4-yl)methyl]acetamide] | > 50 µM

Continued, values first:

IC50 | Compound
> 50 µM | CC(C)(O)c1cc(CN(C(=O)c2c[nH]c3cc(-c4ccc(F)cc4)ccc23)C2C=CS(=O)(=O)C2)ccn1 (stereo not shown) [I-424, N-(1,1-dioxo-2,3-dihydro-1lambda6-thiophen-3-yl)-6-(4-fluorophenyl)-N-{[2-(2-hydroxypropan-2-yl)pyridin-4-yl]methyl}-1H-indole-3-carboxamide]
5 to 10 µM | O=C(Cc1ccc(-c2cccc(F)c2F)cc1)N(Cc1ccncc1)C1C=CS(=O)(=O)C1 (stereo not shown) [I-261, 2-{2′,3′-difluoro-[1,1′-biphenyl]-4-yl}-N-(1,1-dioxo-2,3-dihydro-1lambda6-thiophen-3-yl)-N-[(pyridin-4-yl)methyl]acetamide]
< 0.5 µM | COC(C(=O)N(Cc1ccncc1)C1C=CS(=O)(=O)C1)c1ccc(-c2ccc(F)cc2)cc1 (single isomer, unassigned) [I-72, (2R*)-N-[(3R**)-1,1-dioxo-2,3-dihydro-1lambda6-thiophen-3-yl]-2-{4′-fluoro-[1,1′-biphenyl]-4-yl}-2-methoxy-N-[(pyridin-4-yl)methyl]acetamide]
5 to 10 µM | COc1nc(CN(C(=O)Cc2ccc(S(F)(F)(F)(F)F)cc2)C2C=CS(=O)(=O)C2)cc(N(C)C)n1 (stereo not shown) [I-634, N-{[6-(dimethylamino)-2-methoxypyrimidin-4-yl]methyl}-N-(1,1-dioxo-2,3-dihydro-1lambda6-thiophen-3-yl)-2-[4-(pentafluoro-lambda6-sulfanyl)phenyl]acetamide]
5 to 10 µM | O=C(Cn1ncc2cc(C(F)(F)F)ccc21)N(Cc1ccncc1)C1C=CS(=O)(=O)C1 (stereo not shown) [I-590, N-(1,1-dioxo-2,3-dihydro-1lambda6-thiophen-3-yl)-N-[(pyridin-4-yl)methyl]-2-[5-(trifluoromethyl)-1H-indazol-1-yl]acetamide]
> 50 µM | O=C(CCc1ccc(C(F)(F)F)cc1)N(Cc1ccncc1)C1C=CS(=O)(=O)C1 (stereo not shown) [I-507, N-(1,1-dioxo-2,3-dihydro-1lambda6-thiophen-3-yl)-N-[(pyridin-4-yl)methyl]-3-[4-(trifluoromethyl)phenyl]propanamide]
< 0.5 µM | CC(C)(O)c1cc(CN(C(=O)Cc2ccc(-c3ccc(F)c(F)c3)cc2F)C2C=CS(=O)(=O)C2)ccn1 (single isomer, unassigned) [I-11]
> 50 µM | COc1cccc(-c2ccc(CC(=O)N(Cc3ccncc3)C3C=CS(=O)(=O)C3)cc2)c1 (stereo not shown) [I-556, N-(1,1-dioxo-2,3-dihydro-1lambda6-thiophen-3-yl)-2-{3′-methoxy-[1,1′-biphenyl]-4-yl}-N-[(pyridin-4-yl)methyl]acetamide]
< 0.5 µM | CC(C)(O)c1cc(CN(C(=O)Cn2cc3cc(C(F)(F)F)ccc3n2)C2C=CS(=O)(=O)C2)ccn1 (single isomer, unassigned) [I-676]
5 to 10 µM | O=C(Cc1ccc(-n2cccc2)cc1)N(Cc1cccc2cccnc12)C1C=CS(=O)(=O)C1 (stereo not shown) [I-243, N-(1,1-dioxo-2,3-dihydro-1lambda6-thiophen-3-yl)-2-[4-(1H-pyrrol-1-yl)phenyl]-N-[(quinolin-8-yl)methyl]acetamide]
< 0.5 µM | COC(C(=O)N(Cc1ccnc(C(C)(C)O)c1)C1C=CS(=O)(=O)C1)c1ccc(S(F)(F)(F)(F)F)cc1 (stereo not shown) [I-81, N-(1,1-dioxido-2,3-dihydrothiophen-3-yl)-N-((2-(2-hydroxypropan-2-yl)pyridin-4-yl)methyl)-2-methoxy-2-(4-(pentafluoro-λ^6-sulfaneyl)phenyl)acetamide]
5 to 10 µM | O=C(Cc1ccc(-n2cccc2)cc1)N(Cc1ccc2nccnc2c1)C1C=CS(=O)(=O)C1 (stereo not shown) [I-251, N-(1,1-dioxo-2,3-dihydro-1lambda6-thiophen-3-yl)-2-[4-(1H-pyrrol-1-yl)phenyl]-N-[(quinoxalin-6-yl)methyl]acetamide]
0.5 to 5 µM | O=C(Cc1ccc(S(F)(F)(F)(F)F)cc1)N(Cc1cscn1)C1C=CS(=O)(=O)C1 (stereo not shown) [I-657, N-(1,1-dioxo-2,3-dihydro-1lambda6-thiophen-3-yl)-2-[4-(pentafluoro-lambda6-sulfanyl)phenyl]-N-[(1,3-thiazol-4-yl)methyl]acetamide]
10 to 50 µM | O=C1NC(c2ccccc2)CCN1CC(=O)N(Cc1ccncc1)C1C=CS(=O)(=O)C1 (stereo not shown) [I-819, N-(1,1-dioxo-2,3-dihydro-1lambda6-thiophen-3-yl)-2-(2-oxo-4-phenyl-1,3-diazinan-1-yl)-N-[(pyridin-4-yl)methyl]acetamide]
< 0.5 µM | COc1cc(CN(C(=O)Cc2ccc(C(F)(F)F)cc2)C2C=CS(=O)(=O)C2)ccn1 (single isomer, unassigned) [I-57]
< 0.5 µM | O=C(Cc1ccc(-c2ccc(F)cc2)cc1F)N(Cc1nc(C2CC2)cs1)C1C=CS(=O)(=O)C1 (stereo not shown) [I-80, N-[(4-cyclopropyl-1,3-thiazol-2-yl)methyl]-2-{3,4′-difluoro-[1,1′-biphenyl]-4-yl}-N-(1,1-dioxo-2,3-dihydro-1lambda6-thiophen-3-yl)acetamide]

Same assay, conditions: ADP-Glo_hWRN_IC50, 0.15 nM WRN, 5 μM ATP, 0.1 nM DNA duplex, 15 min preincubation, 60 min at 25° C., pH 7.5, 1% DMSO

IC50 | Compound
> 50 µM | O=C(c1cc(-c2ccc(F)cc2)ns1)N(Cc1ccncc1)C1C=CS(=O)(=O)C1 (stereo not shown) [I-615, N-(1,1-dioxo-2,3-dihydro-1lambda6-thiophen-3-yl)-3-(4-fluorophenyl)-N-[(pyridin-4-yl)methyl]-1,2-thiazole-5-carboxamide]
